Results taken from article PMC3800051 (Bioorganic & medicinal chemistry letters, 2009).
“Also recorded” adds a separate entry of the source.

How the values were obtained:
PLD1 [1] = molecular target: T1, PLD1 (Homo sapiens, UniProt Q13393); assay: cell-based
T1 sequence (Q13393 1-1074): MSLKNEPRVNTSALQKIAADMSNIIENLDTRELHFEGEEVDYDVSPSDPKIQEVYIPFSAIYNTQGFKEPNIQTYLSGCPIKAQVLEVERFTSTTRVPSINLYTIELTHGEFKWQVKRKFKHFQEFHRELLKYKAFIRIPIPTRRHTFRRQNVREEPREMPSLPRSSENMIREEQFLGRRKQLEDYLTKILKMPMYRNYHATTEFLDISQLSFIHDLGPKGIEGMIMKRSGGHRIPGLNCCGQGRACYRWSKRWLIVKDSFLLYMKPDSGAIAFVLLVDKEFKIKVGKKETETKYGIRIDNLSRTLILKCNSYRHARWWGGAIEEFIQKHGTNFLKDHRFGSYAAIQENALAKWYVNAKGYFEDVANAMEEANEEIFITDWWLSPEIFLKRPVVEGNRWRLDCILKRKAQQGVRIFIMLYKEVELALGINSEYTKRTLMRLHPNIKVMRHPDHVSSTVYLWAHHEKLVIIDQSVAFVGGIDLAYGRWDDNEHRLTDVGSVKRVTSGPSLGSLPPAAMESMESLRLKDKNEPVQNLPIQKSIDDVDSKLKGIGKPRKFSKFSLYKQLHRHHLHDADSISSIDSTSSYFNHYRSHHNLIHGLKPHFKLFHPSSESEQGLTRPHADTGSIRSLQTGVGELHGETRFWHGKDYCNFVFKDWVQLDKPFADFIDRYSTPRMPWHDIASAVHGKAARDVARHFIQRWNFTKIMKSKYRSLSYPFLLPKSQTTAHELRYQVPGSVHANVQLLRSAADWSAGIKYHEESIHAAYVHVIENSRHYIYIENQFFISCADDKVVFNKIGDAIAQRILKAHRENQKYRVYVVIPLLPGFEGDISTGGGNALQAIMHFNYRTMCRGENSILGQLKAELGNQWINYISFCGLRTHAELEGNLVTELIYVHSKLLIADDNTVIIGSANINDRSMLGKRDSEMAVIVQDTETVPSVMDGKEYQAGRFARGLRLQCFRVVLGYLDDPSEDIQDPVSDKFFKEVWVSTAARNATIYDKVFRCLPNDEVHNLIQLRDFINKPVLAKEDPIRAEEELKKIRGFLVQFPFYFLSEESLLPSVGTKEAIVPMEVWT

PLD2 = PLD2 (Homo sapiens, UniProt O14939); details: cellular assay, HEK293-gfpPLD2 cells
PLD1 [2] = molecular target: T1, PLD1; details: cellular assay, Calu-1 cells

PLD2, sequence (O14939 whole entry): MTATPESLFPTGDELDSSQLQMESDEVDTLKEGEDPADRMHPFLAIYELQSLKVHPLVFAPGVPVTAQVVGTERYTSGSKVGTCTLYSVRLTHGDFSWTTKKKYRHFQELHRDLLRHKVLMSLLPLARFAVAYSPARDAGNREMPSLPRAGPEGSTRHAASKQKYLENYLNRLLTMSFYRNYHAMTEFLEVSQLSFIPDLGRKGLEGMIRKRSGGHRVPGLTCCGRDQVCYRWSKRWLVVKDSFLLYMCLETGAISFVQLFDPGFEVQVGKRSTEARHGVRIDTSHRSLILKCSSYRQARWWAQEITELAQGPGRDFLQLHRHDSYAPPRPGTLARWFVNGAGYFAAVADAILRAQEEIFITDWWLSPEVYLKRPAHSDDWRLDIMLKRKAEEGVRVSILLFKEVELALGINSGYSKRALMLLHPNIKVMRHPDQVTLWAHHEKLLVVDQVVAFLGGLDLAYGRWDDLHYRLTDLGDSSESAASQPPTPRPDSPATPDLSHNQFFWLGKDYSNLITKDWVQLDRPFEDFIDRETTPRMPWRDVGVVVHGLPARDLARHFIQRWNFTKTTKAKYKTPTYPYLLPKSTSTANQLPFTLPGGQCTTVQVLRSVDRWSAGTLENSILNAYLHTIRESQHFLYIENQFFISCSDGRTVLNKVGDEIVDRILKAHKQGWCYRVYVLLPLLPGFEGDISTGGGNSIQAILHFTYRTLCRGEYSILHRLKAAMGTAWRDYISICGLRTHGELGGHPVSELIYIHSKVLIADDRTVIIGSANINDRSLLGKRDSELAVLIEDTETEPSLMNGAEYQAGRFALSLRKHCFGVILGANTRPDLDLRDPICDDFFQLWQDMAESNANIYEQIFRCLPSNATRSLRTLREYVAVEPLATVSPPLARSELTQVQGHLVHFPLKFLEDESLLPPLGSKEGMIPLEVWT

| Structure (SMILES) | IC50 (PLD1 [1]) [µM] | PLD2 inhibition (in words) (PLD2) | PLD1 inhibition (in words) (PLD1 [2]) |
| --- | --- | --- | --- |
| c1ccc(N2CCNCC2)nc1 [Compound 16] | 3.6 to 18 | – | – |
| O=C(NCCN1CCC2(CC1)C(=O)NCN2c1ccccc1)[C@H]1C[C@@H]1c1ccccc1 [Compound 9a] | – | inactive on both PLD isoforms; also recorded: complete loss of PLD inhibition | inactive on both PLD isoforms; also recorded: complete loss of PLD inhibition |
| c1cc(N2CCNCC2)ccn1 [Compound 15] | 3.6 to 18 | – | – |
| O=C(NCCN1CCC2(CC1)C(=O)NCN2c1ccccc1)c1cnc2ccccc2n1 [Compound 9g] | – | complete loss of PLD inhibitory activity | complete loss of PLD inhibitory activity |
| C[C@@H](CN1CCC2(CC1)C(=O)NCN2c1ccccc1)NC(=O)[C@H]1C[C@@H]1c1ccccc1 [Compound 10b] | – | no effect, relative to 9a, on PLD2 inhibition | – |
